Test results published in US7498349B2, “Biaryl compounds having anti-infective activity” (Genesoft Pharmaceuticals, Inc., priority 2002, dated 2009).

How the values were obtained:
[1] = system: S. pneumoniae ATCC 49619; assay: MIC, NCCLS broth microdilution assay; type: cell-based, Streptococcus pneumoniae; conditions: S. pneumoniae ATCC 49619
[2] = system: S. aureus ATCC 27660; assay: MIC, NCCLS broth microdilution assay; type: cell-based, Staphylococcus aureus; conditions: S. aureus ATCC 27660, methicillin resistant strain (MRSA)
Excerpt: (§1) In vitro biological activity data were collected for a variety of microorganisms, including Bacillus cereus (ATCC 11778), Staphylococcus aureus (ATCC 33591; ATCC 27660, a methicillin resistant strain (MRSA); ATCC 13709, a methicillin sensitive strain (MSSA)), Escherichia coli (ATCC 25922), Enterococcus faecalis (ATCC 29212), Streptococcus pneumoniae (ATCC 49619; ATCC 51422, a penicillin resistant strain (PRSP)), Enterococcus faecium (ATCC 51559, a vancomycin resistant strain (VRE)), and Staphylococcus epidermidis (ATCC 12228).
(§2) The minimal inhibition concentration (MIC) of these compounds was determined using the National Committee for Clinical Laboratory Standards (NCCLS) broth microdilution assay in microtiter plates, as set forth in: (1) the guidelines of the National Committee for Clinical Laboratory Standards (NCCLS) Document M7-A4 (NCCLS, 1997); (2) the guidelines of the National Committee for Clinical Laboratory Standards (NCCLS) Document M11-A4 (NCCLS, 1997); and (3) the guidelines and reference method of the National Committee for Clinical Laboratory Standards (NCCLS) Document M27 -T (NCCLS, 1995).

[3] = system: B. cereus ATCC 11778; assay: MIC, NCCLS broth microdilution assay; type: cell-based, Bacillus cereus; conditions: B. cereus ATCC 11778
[4] = system: E. coli ATCC 25922; assay: MIC, NCCLS broth microdilution assay; type: cell-based, Escherichia coli; conditions: E. coli ATCC 25922
[5] = system: S. aureus ATCC 13709; assay: MIC, NCCLS broth microdilution assay; type: cell-based, Staphylococcus aureus; conditions: S. aureus ATCC 13709, methicillin sensitive strain (MSSA)
Excerpt: as §1, §2

[6] = system: E. faecalis ATCC 29212; assay: MIC, NCCLS broth microdilution assay; type: cell-based, Enterococcus faecalis; conditions: E. faecalis ATCC 29212
[7] = system: C. albicans ATCC 38247; assay: MIC, antifungal assay; type: cell-based, Candida albicans; conditions: C. albicans ATCC 38247

| SMILES | Minimum Inhibitory Concentration (MIC) [1] | Minimum Inhibitory Concentration (MIC) [2] | Minimum Inhibitory Concentration (MIC) [3] | Minimum Inhibitory Concentration (MIC) [4] | Minimum Inhibitory Concentration (MIC) [5] | Minimum Inhibitory Concentration (MIC) [6] | Minimum Inhibitory Concentration (MIC) [7] |
| --- | --- | --- | --- | --- | --- | --- | --- |
| O=C(Nc1ccc(-c2cc3ccccc3o2)cc1)c1nsc(NCCN2CCNCC2)c1Cl [Compound A-1] | + (12 ≦ MIC ≦ 32) | +++ (MIC ≦ 4) | +++ (MIC ≦ 4) | >32 µg/mL | +++ (MIC ≦ 4) | +++ (MIC ≦ 4) | + (12 ≦ MIC ≦ 32) |
| NCCCCNc1snc(C(=O)Nc2ccc(-c3cc4ccccc4o3)cc2)c1Cl [Compound A-4] | >32 µg/mL | +++ (MIC ≦ 4) | + (12 ≦ MIC ≦ 32) | >32 µg/mL | +++ (MIC ≦ 4) | +++ (MIC ≦ 4) | + (12 ≦ MIC ≦ 32) |
| CCN(CC)CCCNc1snc(C(=O)Nc2ccc(-c3cc4ccccc4o3)cc2)c1Cl [Compound A-5] | >32 µg/mL | +++ (MIC ≦ 4) | ++ (4 < MIC < 12) | >32 µg/mL | +++ (MIC ≦ 4) | +++ (MIC ≦ 4) | ++ (4 < MIC < 12) |
| NCCOCCOCCNc1snc(C(=O)Nc2ccc(-c3cc4ccccc4o3)cc2)c1Cl [Compound A-6] | >32 µg/mL | +++ (MIC ≦ 4) | >32 µg/mL | >32 µg/mL | +++ (MIC ≦ 4) | +++ (MIC ≦ 4) | ++ (4 < MIC < 12) |
| NCCCNc1ncccc1C(=O)Nc1ccc(-c2cc3ccccc3o2)cc1 [Compound A-9] | + (12 ≦ MIC ≦ 32) | +++ (MIC ≦ 4) | +++ (MIC ≦ 4) | + (12 ≦ MIC ≦ 32) | +++ (MIC ≦ 4) | +++ (MIC ≦ 4) | + (12 ≦ MIC ≦ 32) |
| O=C(Nc1ccc(-c2cc3ccccc3o2)cc1)c1cccnc1NCCN1CCNCC1 [Compound A-10] | + (12 ≦ MIC ≦ 32) |  | + (12 ≦ MIC ≦ 32) | >32 µg/mL |  | + (12 ≦ MIC ≦ 32) | >32 µg/mL |
| O=C(Nc1ccc(-c2cc3ccccc3o2)cc1)c1cccnc1NCCN1CCCCC1 [Compound A-13] | + (12 ≦ MIC ≦ 32) | +++ (MIC ≦ 4) | +++ (MIC ≦ 4) | >32 µg/mL | +++ (MIC ≦ 4) | +++ (MIC ≦ 4) | + (12 ≦ MIC ≦ 32) |
| O=C(Nc1ccc(-c2cc3ccccc3o2)cc1)c1cccnc1NCCN1CCSCC1 [Compound A-14] | >32 µg/mL | >32 µg/mL | >32 µg/mL | >32 µg/mL | >32 µg/mL | >32 µg/mL | >32 µg/mL |
| O=C(Nc1ccc(-c2cc3ccccc3o2)cc1)c1cccnc1NCCN1CCCC1 [Compound A-15] | + (12 ≦ MIC ≦ 32) | +++ (MIC ≦ 4) | ++ (4 < MIC < 12) | >32 µg/mL | +++ (MIC ≦ 4) | +++ (MIC ≦ 4) | + (12 ≦ MIC ≦ 32) |
